In ChEMBL document CHEMBL1122700, “Structure-activity, theoretical, and X-ray studies on the intramolecular interactions in a series of novel histamine H2 receptor antagonists” (1984) one finds ED50, Relative potency and -Log KB data, which are given here for four compounds.

One assay deals with Canis familiaris. Description: Inhibition of histamine-stimulated gastric acid secretion in dog after intravenous administration. Type of assay: functional. The note with it: Canis lupus familiaris, Stomach.
Assay [1] deals with Histamine H2 receptor (Cavia porcellus) (UniProt P47747). The experiment in a line: Histamine H2 receptor affinity was assessed in vitro by antagonism of dimaprit-stimulated chronotropic response in guinea pig right atrium at 0.1 ug/mL. It counts as functional, tissue-based. The following applies: Cardiac atrium.
For assay [2] the target is unchanged. The experiment in a line: Binding constant towards histamine H2 receptor.

SMILES strings stand for the structures.

Chain of Histamine H2 receptor (Cavia porcellus) (P47747 whole entry): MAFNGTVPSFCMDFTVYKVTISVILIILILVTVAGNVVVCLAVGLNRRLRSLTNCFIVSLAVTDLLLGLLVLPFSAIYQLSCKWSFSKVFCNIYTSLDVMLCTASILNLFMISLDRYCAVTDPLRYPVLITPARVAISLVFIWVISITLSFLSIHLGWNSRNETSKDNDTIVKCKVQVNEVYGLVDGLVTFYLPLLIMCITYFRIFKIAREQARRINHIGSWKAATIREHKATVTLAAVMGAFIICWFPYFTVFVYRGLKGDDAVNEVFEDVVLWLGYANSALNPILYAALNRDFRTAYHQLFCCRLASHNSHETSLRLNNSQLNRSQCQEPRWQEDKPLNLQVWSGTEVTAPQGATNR

The ED50 is the midpoint of the dose-response relation. In the assay with Canis familiaris, `CN(C)Cc1ccc(CSCCNc2n[s+]([O-])nc2N)s1` (stereo not drawn) gave a median effective dose (ED50) of 0.008 mg/kg.
With `CN(C)Cc1cccc(CSCCNc2n[s+]([O-])nc2N)n1` (stereo not drawn), it took a dose of 0.17 mg/kg to reach the 50% effect level in the assay on Canis familiaris (ED50). This compound gave a Relative potency in assay [1] of 0.84.
In the assay on Canis familiaris, `CN(C)Cc1ccc(CSCCNc2n[s+]([O-])nc2N)[nH]1` (stereo not drawn) returned an ED50 of 0.17 mg/kg. In addition, in assay [1], the Relative potency amounted to 0.31. Further, the -Log KB in assay [2] was found to be 6.85.
In turn, `CN(C)Cc1cccc(CSCCNc2n[s+]([O-])nc2N)c1` (stereo not drawn) returned an ED50 in the assay with Canis familiaris of 0.013 mg/kg. Also, the Relative potency in assay [1] was determined as 0.51.
